Data published in patent publication US11382907B2, “Methods and compositions for treating aging-associated impairments using CCR3-inhibitors” (Alkahest, Inc., priority 2017, dated 2022).
Entries after “also recorded” stand apart in the source; their conditions may differ.

Tests used:
[1] = system: two-month-old C57Bl/6 mice treated with rmCCL11; test: Open Field test in young mice given recombinant mouse CCL11; type: in vivo; conditions: 2-month-old mice; rmCCL11 i.p.; Compound 1 30 mg/kg p.o. b.i.d., 2 weeks
Procedure: Open Field is used to evaluate general locomotor activity and exploratory behavior in a novel environment. Mice are brought to the experimental room for at least 30 min for acclimation to the experimental room conditions (dim lighting) prior to testing. The testing arena consists of a 50 cm×50 cm square arena. Mice are placed in the center of an arena and tracked for 15 minutes. Time spent in the peripheral and centers zones is analyzed, along with rearing behavior. 70% ethanol is used to clean all surfaces between trials.
[…] During the last week of treatment, mice were subjected to behavior testing prior to perfusion on the last day of treatment. All mice received 5 consecutive days of BrdU injection at 150 mg/kg IP immediately prior to treatment start. […]

[2] = system: two-month-old C57Bl/6 mice treated with rmCCL11; test: Y-maze test in young mice given recombinant mouse CCL11; type: in vivo; conditions: 2-month-old mice; rmCCL11 i.p.; Compound 1 30 mg/kg p.o. b.i.d.
Procedure: A large Y-maze test assesses short-term memory of the familiarity of a specific context. Mice are brought to the experimental room for at least 30 min of acclimation to the experimental room conditions (dim lighting) prior to testing. For the initial training trial, the mouse is placed at the end of one arm of a large Y-maze designated “start arm” (arm length: 15 inches). The third arm of the maze is blocked off, allowing the mouse to explore two of the three arms freely (“start arm” and “familiar arm”) for 5 min. Each arm contains spatial cues. One hour later, the mouse is placed back into the maze in the “start arm” and allowed to explore all three arms with the third arm unblocked (“novel arm”). Movements in and out of each arm are tracked using automated tracking software (CleverSys). Testing is performed under dim lighting, and the apparatus is cleaned with 70% ethanol between trials.
Two-month-old C57Bl/6 mice were dosed with either vehicle control or Compound 1 by oral gavage twice daily for 18 days. During the last week of treatment, mice were subjected to behavior testing prior to perfusion on the last day of treatment. All mice received 5 consecutive days of BrdU injection at 150 mg/kg IP immediately prior to treatment start. […]

[3] = system: CD68+ activated microglia; test: CD68+ activated microglia after one dose of LPS; type: in vivo, C57 mice; conditions: 3-month-old mice; one dose LPS 10 mg/kg IP; 30 mg/kg BID oral gavage 18 days
Excerpt: (§1) Mice were taken down on the day following the end of behavior testing. Anesthesia was induced by 2,2,2-tribromoethanol and mice were subsequently perfused with 0.9% saline trans-cardially. The brains were dissected and cut sagitally in two even halves. One half was snap frozen for later use in dry ice, and the other was fixed in 4% paraformaldehyde in PBS for use in immunohistochemistry. After two days of fixation, the hemibrains were transferred to a 30% sucrose in PBS solution and changed after two days. Hemibrains were sectioned at 30 um on a microtome at −22° C. Brain sections were stored in cryoprotectant media at −20° C. until needed for staining. Blocking was done on free floating sections in the appropriate serum at 10% serum in PBST 0.5%. Primary antibodies were incubated overnight at 4 C. For light microscopy, the following antibodies were used in the given concentrations: DCX, 1:200, Santa Cruz BioTech, CD68, 1:1000. AbD Serotec. Secondary biotinylated antibodies were applied the next day at a concentration of 1:300. Staining visualization was achieved by reaction with the ABC kit (Vector) and diaminobenzidine (Sigma). Dehydration of the mounted slides was achieved using ethanol and xylene dips. Images were acquired on a Leica light microscope at 5× magnification. […]

[4] = system: CD68+ activated microglia; test: IHC of CD68+ activated microglia in hippocampus of mice given daily LPS; type: in vivo, C57Bl/6 mice; conditions: 3-month-old mice, daily LPS IP 7 weeks, 30 mg/kg PO BID 4 weeks
Excerpt: as §1

[5] = system: GFAP-positive astroglia; test: IHC of GFAP-positive astroglia in hippocampus of mice given daily LPS; type: in vivo, C57Bl/6 mice; conditions: 3-month-old mice, daily LPS IP 7 weeks, 30 mg/kg PO BID 4 weeks
Procedure: For fluorescent microscopy, the following antibodies were used in the given concentrations: GFAP, 1:500, DAKO; Iba1, 1:1000, Wako; and BrdU, 1:500, AbCam. Antigen retrieval protocol was required for BrdU (2N HCl, 37 C, 30 min) prior to blocking. The appropriate fluorescent secondary antibodies were applied the next day at a concentration of 1:300 for one hour at room temperature. Prolong Gold Mounting Media was used to coverslip the slides. Images were acquired on a light microscope at 5× magnification.
Three-month-old C57 mice were given daily doses of lipopolysaccharide (LPS) 0.5 mg/kg IP to induce inflammation and treated with Compound 1 for up to 4 weeks.
Treatment Groups: • Treatment Group 1, Vehicle treatment: 3-month-old C57 mice (n=10) received daily IP injection of LPS for 7 weeks and twice daily (BID) oral gavage (PO) treatment of vehicle solution for up to 4 weeks. • Treatment Group 2, Vehicle treatment and Oxazolone treatment: 3-month-old C57 mice (n=10) received daily IP injection of LPS for 7 weeks and twice daily (BID) oral gavage (PO) treatment of vehicle solution for up to 4 weeks. • Treatment Group 3, Compound 1 treatment and Oxazolone treatment: 3-month-old C57 mice (n=9) received daily IP injection of LPS for 7 weeks and twice daily (BID) oral gavage (PO) treatment of Compound 1, 30 mg/kg, for up to 4 weeks.

Cc1cc(C(=O)N(C)C)cc(NC(=O)[C@H]2CCC(=O)N2C2CCN(Cc3ccc(Cl)c(C)c3)CC2)n1 [Compound 1]
anxiety in the Open Field [1]: improved anxiety
memory in the Y-maze [2]: no longer significantly different from control mice
CD68+ immunoreactivity (activated microglia) in brain [3]: significantly decreased CD68+ immunoreactivity
CD68+ immunoreactivity (activated microglia) in hippocampus [4]: dramatically decreased CD68+ immunoreactivity; also recorded: robust trend towards decrease
GFAP+ immunoreactivity (total astrocytes) in hippocampus [5]: dramatically decreased GFAP+ immunoreactivity; also recorded: trend towards decrease
